Data from US5360803A, “Composition and method for treating cancer” (Dan Farber Cancer Institute, priority 1992, dated 1994).
Like-named read-outs stand apart in the source and are kept apart here.

Tests used:
human melanoma LOX = assay: survival of nude mice implanted with human melanoma LOX; assay type: in vivo, male athymic Swiss nu/nu mouse (human tumor); settings: Mus musculus, ip, 24 h, read-out: T/C
Procedure: LOX, a human melanoma cell line, grown subcutaneously in nude mice was excised, trypsinized to yield a single cell suspension using a metal grid with a […] mesh. […] Five million viable trypan blue negative cells made up in 0.1 ml of Dulbecco modified Eagle medium (DMFE) were injected into the peritoneal cavity of a male athymic Swiss nu/nu mouse. The control group and each treatment group consisted of 5 to 10 mice. Treatment was commenced the following day by intraperitoneal injection.
Ten control mice received 0.25 ml of 2% dextrose on these days the treated groups were injected with the compounds of this invention. […] T/C is the ratio, expressed as a percentage of the mean survival age of the treated group to the mean survival age of the untreated control group.

CV-1 cells = assay: selective killing assay, colony number reduced to 50% of control, normal monkey kidney epithelial cell line CV-1; assay type: cell-based; settings: 24 hours treatment; for IC50: Primates; for CV-1 (IC50): Table III
From the text: The control received culture media only.

LOX cells = assay: colony assay of Example 1 with human melanoma LOX cell line; assay type: cell-based; settings: for Selectivity: CV-1/LOX; for IC50: Homo sapiens, LOX, 24 h, Table V, human melanoma, 24 hours treatment;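 as to all read-outs here: colony formation assay with 24 h exposure at 37 °C, then 7 to 10 days of regrowth, crystal violet staining of colonies, control wells given medium alone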
CRL 1420 cells = assay: colony assay of Example 1 with human pancreatic carcinoma CRL 1420 cell line; assay type: cell-based; settings: for Selectivity: CV-1/CRL-1420; for IC50: Homo sapiens, 24 h, Table VII, human pancreatic carcinoma, 24 hours treatment;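 as to all read-outs here: colony formation assay, cells exposed for 24 h then regrown 7 to 10 days without compound, colonies stained with crystal violet, control given medium alone, normal reference CV-1 monkey kidney epithelial cells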
CX-1 cells = assay: selective killing assay, colony number reduced to 50% of control, human colon carcinoma cell line CX-1; assay type: cell-based; settings: for Selectivity (ratio of IC50 for CV-1 and IC50 for CX-1): CV-1/CX-1; for IC50: Homo sapiens, CX-1, Table III; for IC50 / CX-1 (IC50): human colon carcinoma, 24 hours treatment, colony count after 7 to 10 days; for CX-1 (IC50): Table III;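 as to all read-outs here: colonies stained with crystal violet and counted, control cells given medium alone, exposure at 37 °C, normal monkey kidney epithelial CV-1 cells as the non-cancer comparator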
EJ cells = assay: colony assay of Example 1 with human bladder carcinoma EJ cell line; assay type: cell-based; settings: for Selectivity: CV-1/EJ; for IC50: Homo sapiens, EJ, 24 h, Table IV, human bladder carcinoma, 24 hours treatment;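 as to all read-outs here: colony formation assay with 24 h compound exposure at 37 °C, then 7–10 days drug-free regrowth, colonies stained with crystal violet, controls given medium alone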
Procedure: Human colon carcinoma cell line CX-1 or normal monkey kidney epithelial cell line CV-1 was chosen as representatives of cancer cells and normal cells, respectively. […] CX-1 cells (2,000 cells/well) and CV-1 cells (1,000 cells/well) were plated in 24-well plastic culture plates. […] The control received culture media only. Cells were treated with compounds of General Formulas (I) to (V) at 37° C. for 24 hours. After rinsing with fresh culture medium three times, the cells were further incubated at 37° C. for 7 to 10 days. Cell colonies were fixed and stained with 2% crystal violet in 70% ethanol for 10 minutes and rinsed in water. […] The selectivity is defined as the ratio of IC50 for CV-1 and IC50 for CX-1.

[1] = CV-1, Table III, normal monkey kidney epithelial cells, colony count after 7 to 10 days
[2] = normal monkey kidney epithelial cells, colony count after 7 to 10 days
[3] = 5 mg/kg i.p. on day 1, 4, 8, 10, 12

| IC50 (LOX cells) | Compound | IC50 (CV-1 cells; CV-1, 24 h, Table V) | Selectivity (LOX cells) | IC50 (CV-1 cells; [1]) | Selectivity (ratio of IC50 for CV-1 and IC50 for CX-1) (CX-1 cells) | IC50 (CX-1 cells) | response vs control in vivo at 5 mg/kg (human melanoma LOX; [3]) | other results |
| --- | --- | --- | --- | --- | --- | --- | --- | --- |
| 0.04 µg/mL | CCn1c(=Cc2cccc[n+]2CC)sc(=C2Oc3c(ccc4ccccc34)N2C)c1=O [Compound 214] | 20 µg/mL | 500 |  |  |  |  | response vs control in vivo at 10 mg/kg (human melanoma LOX; 10 mg/kg i.p. on day 1, 4, 8, 10, 12): > 300% |
| 0.02 µg/mL | CCn1c(=Cc2oc3c4ccccc4ccc3[n+]2CC)sc(=C2Sc3c(ccc4ccccc34)N2C)c1=O [Compound 238] | 20 µg/mL | 1000 | 20 µg/mL | 400 | 0.05 µg/mL |  | Selectivity (CRL 1420 cells): 1000; IC50 (CRL 1420 cells): 0.02 µg/mL; IC50 (CV-1 cells; CV-1, 24 h, Table IV): 20 µg/mL; IC50 (CV-1 cells; CV-1, 24 h, Table VII): 20 µg/mL; Selectivity (EJ cells): 2000; IC50 (EJ cells): 0.01 µg/mL |
| 0.05 µg/mL | CCn1c(=Cc2cccc[n+]2CC)sc(=C2Sc3c(ccc4ccccc34)N2C)c1=O [Compound 239] | 20 µg/mL | 400 | 20 µg/mL | 200 | 0.1 µg/mL |  | Selectivity (CRL 1420 cells): 400; IC50 (CRL 1420 cells): 0.05 µg/mL; IC50 (CV-1 cells; CV-1, 24 h, Table IV): 20 µg/mL; IC50 (CV-1 cells; CV-1, 24 h, Table VII): 20 µg/mL; Selectivity (EJ cells): 250; IC50 (EJ cells): 0.08 µg/mL |
|  | CCn1c(=Cc2sc3ccccc3[n+]2CC)sc(=C2Sc3ccc(Cl)cc3N2C)c1=O [Compound 244] |  |  | 0.05 µg/mL |  | 10 µg/mL |  | response vs control in vivo at 10 mg/kg (human melanoma LOX; 10 mg/kg i.p. on day 1, 2, 6, 8, 13): 150% |
|  | CCn1c(=Cc2oc3ccccc3[n+]2CC)sc(=C2Sc3ccccc3N2C)c1=O [Compound 245] |  |  |  | 350 |  |  | response vs control in vivo at 15 mg/kg (human melanoma LOX; 15 mg/kg i.p. on day 1, 5, 9, 13, 19): 200%; CV-1 (IC50) (CV-1 cells; [2]): 0.02 µg/mL; CX-1 (IC50) (CX-1 cells): 7 µg/mL |
|  | CCn1c(=Cc2cc[n+](CC)c3ccccc23)sc(=C2C=Cc3ccccc3N2C)c1=O [Compound 256] |  |  | 4 µg/mL | 200 | 0.02 µg/mL | 171% |  |
|  | CCn1c(=Cc2cccc[n+]2CC)sc(=C2Sc3ccccc3N2C)c1=O [Compound 283] |  |  |  |  |  |  | response vs control in vivo at 5 mg/kg (human melanoma LOX; 5 mg/kg i.p. on day 1, 4, 8, 11, 14): > 350% |
|  | CCn1c(=Cc2oc3c4ccccc4ccc3[n+]2CC)sc(=C2Oc3ccc4ccccc4c3N2C)c1=O [Compound 316] |  |  |  | 100 |  | > 340% | CV-1 (IC50) (CV-1 cells; [2]): 1 µg/mL; CX-1 (IC50) (CX-1 cells): 0.01 µg/mL |
| 0.005 µg/mL | CCn1c(=Cc2sc3ccc4ccccc4c3[n+]2CC)sc(=C2Sc3ccccc3N2C)c1=O [Compound 338] | 2 µg/mL | 400 |  |  |  |  | response vs control in vivo at 4 mg/kg (human melanoma LOX; 4 mg/kg i.p. on day 1, 3, 4, 6, 8, 10, 13): 194% |
| 0.03 µg/mL | CCn1c(=Cc2scc(C)[n+]2CC)sc(=C2Sc3ccccc3N2C)c1=O [Compound 339] | 10 µg/mL | 333 |  |  |  | > 340% |  |
|  | CCn1c(=Cc2cccc[n+]2CC)sc(=C2Sc3ccccc3N2C)c1=O [Compound 342] |  |  |  |  |  |  | response vs control in vivo at 5 mg/kg (human melanoma LOX; 5 mg/kg i.p. on day 1, 5, 8, 11, 14): > 350% |
|  | CCn1c(=C2CCC[n+]3c2sc2ccccc23)sc(=C2Sc3ccccc3N2C)c1=O [Compound 343] |  |  |  |  |  |  | response vs control in vivo at 5 mg/kg (human melanoma LOX; 5 mg/kg i.p. on day 1, 3, 4, 6, 8, 10, 13): 188% |
|  | CCn1c(=Cc2scc(C)[n+]2CC)sc(=C2Sc3ccc4ccccc4c3N2C)c1=O [Compound 344] |  |  |  |  |  | > 288% |  |
